Experimental data as given in patent US9873878B2, “Compositions and methods for use in treating silicosis and lung cancer” (University of Louisville Research Foundation, Inc., priority 2015, dated 2018).

Tested on: RAW264.7 cells
Experiment: CS-induced LTB4 production in RAW264.7 culture supernatants (LTB4 EIA)
Assay type: cell-based
Details: RAW264.7 cells pre-treated with 10 μM Zileuton for 1 h, then 120 μg/cm^2 CS for 6 h
Method: FIG. 10C depicts LTB4 production by cells in vitro, measured in culture supernatants of RAW264.7 cells exposed to 120 μg/cm^2 CS for 6 h in presence of 5-LO inhibitor.
LKR13 and RAW264.7cells were cultured in DMEM containing 10% FBS. For CS stimulation assays, 0.3 million cells were plated per well of 12-well tissue culture dishes in 400 μl of 1% FBS containing medium. The cells were stimulated for 6 h with 120 μg/cm^2 of CS. Whenever indicated RAW264.7 cells were pre-treated with 10 μM Zileuton (5-LO inhibitor) for 1 h.
Subcutaneous tumors were homogenized in 500 ul 1×PBS buffer containing 10 uM Indomethacin using Omni GLH general homogenizer. The homogenates were centrifuged at 14000 g for 10 min and LTB4 levels in the supernatants were quantified. The LTB4 levels were normalized to the amount of protein in the supernatants measured by Themo Sceintific Pierce BCA protein assay kit following manufacturer's instructions. LTB4 in the tumor homogenate supernatant was expressed as pg/mg of protein. LTB4 in cell culture supernatants, BALF, air pouch lavage and subcutaneous tumors was measured using LTB4 EIA Kit (Cayman Chemical) according to the manufacturer's instructions. IL-1β in cell culture supernatants was measured using Mouse IL-1β ELISA MAX™ Standard Kit (Biolegend) according to the manufacturer's instructions.

CC(c1cc2ccccc2s1)N(O)C(N)=O (stereo not shown) [Zileuton]
LTB4 production by CS activation: completely blocked
